Data taken from patent publication US8362000B2, “Azetidinyl diamides as monoacylglycerol lipase inhibitors” (Janssen Pharmaceutica NV, priority 2009, dated 2013).
Substitutions are numbered along the chain they refer to. Like-named read-outs stand apart in the source and are kept apart here.

Experiments:
mutant MGL = biological target: T1, mutant MGL (Homo sapiens, UniProt Q99685, L169S/L176S); experiment: MGL ThermoFluor assay - mutant; type: binding
T1 sequence (Q99685 1-303 L169S/L176S): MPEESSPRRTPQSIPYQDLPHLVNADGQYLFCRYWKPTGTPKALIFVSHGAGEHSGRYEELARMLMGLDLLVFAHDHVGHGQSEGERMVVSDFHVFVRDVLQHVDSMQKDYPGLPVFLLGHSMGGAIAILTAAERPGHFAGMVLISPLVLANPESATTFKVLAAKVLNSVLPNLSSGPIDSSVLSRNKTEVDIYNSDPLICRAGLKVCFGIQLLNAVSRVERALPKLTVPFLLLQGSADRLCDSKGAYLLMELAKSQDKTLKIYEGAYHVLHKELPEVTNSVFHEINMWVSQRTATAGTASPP

[1] = biological target: T2, purified wild type MGL (wt-MGLL 6H-11-313) (Homo sapiens, UniProt Q99685)
T2 sequence (Q99685 1-303): T1 sequence (Q99685 1-303 L169S/L176S) with S169L, S176L

[2] = ThermoFluor, compound concentration measured by qNMR, read-out: MGL mutant ThermoFluor qKd (μM) (using qNMR conc.)
[3] = ThermoFluor, compound concentration measured by qNMR, read-out: MGL mutant ThermoFluor qKd (using qNMR conc.)
[4] = ThermoFluor thermal stability binding assay, read-out: MGL mutant ThermoFluor Kd
[5] = ThermoFluor concentration-response, read-out: MGL mutant ThermoFluor Kd
[6] = compound concentration measured by qNMR, read-out: MGL mutant ThermoFluor qKd (using qNMR conc.)

Row | IC50 [1] [nM] | Kd (mutant MGL; [5]) [µM] | Compound | other results
1 | 10300 | 1.29 | O=C(c1ccc(-n2cnc3ccccc32)cc1)N1CCN(C2CN(C(=O)c3ccccc3)C2)CC1 [Cpd 610] | –
2 | 13300 | 5.15 | O=C(c1ccc2[nH]c(-c3ccccc3)nc2c1)N1CCN(C2CN(C(=O)c3ccccc3)C2)CC1 [Cpd 611] | –
3 | 53 | 0.145 | O=C(c1ccccc1)N1CCN(C2CN(C(=O)c3ccc4c(ccn4-c4ccc(Cl)cn4)c3)C2)CC1 [Cpd 629, 1-(5-Chloropyridin-2-yl)-5-({3-[4-(phenylcarbonyl)piperazin-1-yl]azetidin-1-yl}carbonyl)-1H-indole] | –
4 | 714 | – | Cc1cc(-n2ccc3cc(C(=O)N4CC(N5CCN(C(=O)c6ccccc6)CC5)C4)ccc32)ccn1 [Cpd 630, 1-(2-Methylpyridin-4-yl)-5-({3-[4-(phenylcarbonyl)piperazin-1-yl]azetidin-1-yl}carbonyl)-1H-indole] | Kd (mutant MGL; [3]): 0.195 µM
5 | 40 | – | O=C(c1ccccc1)N1CCN(C2CN(C(=O)c3cc4ccn(-c5ccc(F)cc5)c4cc3F)C2)CC1 [Cpd 631] | Kd (mutant MGL; [6]): 0.052 µM
6 | 62 | – | COc1cc(-n2ccc3cc(C(=O)N4CC(N5CCN(C(=O)c6ccccc6)CC5)C4)ccc32)ccc1C#N [Cpd 633] | Kd (mutant MGL; [4]): 0.157 µM
7 | 189 | 0.172 | CCCCC/C=C\C/C=C\CCCCCCCC(=O)N1CC(N2CCN(C(=O)c3nccs3)CC2)C1 [Cpd 638] | Kd (mutant MGL; [3]): 0.264 µM
8 | 419 | 0.132 | CCCCC/C=C\C/C=C\C/C=C\C/C=C\CCCC(=O)N1CC(N2CCN(C(=O)c3nccs3)CC2)C1 [Cpd 639] | –
9 | 15900 | 25 | CCCCCCCCCCCCCCCCCCCC(=O)N1CC(N2CCN(C(=O)c3nccs3)CC2)C1 [Cpd 640] | –
10 | 7160 | 1.61 | N#Cc1ccc(N2CCC(C(=O)N3CC(N4CCN(C(=O)c5nccs5)CC4)C3)CC2)cc1 [Cpd 646] | –
11 | 12700 | – | N#Cc1ccc(N2CCC(C(=O)N3CC(N4CCN(C(=O)c5cscn5)CC4)C3)CC2)cc1 [Cpd 647] | Kd (mutant MGL; [4]): > 31.2 µM
12 | 6 | – | COc1c(C(=O)N2CC(N3CCN(C(=O)c4nccs4)CC3)C2)sc2cc(C(F)(F)F)ccc12 [Cpd 649, 1-(1-{[3-Methoxy-6-(trifluoromethyl)-1-benzothiophen-2-yl]carbonyl}azetidin-3-yl)-4-(1,3-thiazol-2-ylcarbonyl)piperazine] | Kd (mutant MGL; [6]): 0.001 µM
13 | 8 | – | O=C(c1sc2cc(C(F)(F)F)ccc2c1Cl)N1CC(N2CCN(C(=O)C(F)(F)F)CC2)C1 [Cpd 656, 1-(1-{[3-Chloro-6-(trifluoromethyl)-1-benzothiophen-2-yl]carbonyl}azetidin-3-yl)-4-(trifluoroacetyl)piperazine] | Kd (mutant MGL; [3]): 0.101 µM
14 | 16 | – | O=C(c1ccc2nc(N3CCC(F)(F)CC3)sc2c1)N1CC(N2CCN(C(=O)c3nccs3)CC2)C1 [Cpd 671] | Kd (mutant MGL; [6]): 0.018 µM
15 | 47 | – | O=C(c1ccc(COCC(F)(F)F)cc1)N1CC(N2CCN(C(=O)c3nccs3)CC2)C1 [Cpd 694] | Kd (mutant MGL; [3]): 0.048 µM
16 | 65 | – | O=C1c2ccccc2-c2ccc(C(=O)N3CC(N4CCN(C(=O)c5nccs5)CC4)C3)cc21 [Cpd 698] | Kd (mutant MGL; [3]): 0.085 µM
17 | 96 | 0.017 | Cc1c(C(=O)N2CCN(C3CN(C(=O)c4nccs4)C3)CC2)sc2cc(C(F)(F)F)ccc12 [Cpd 704] | –
18 | 103 | 0.001 | CC1(C)C=C(c2ccc(C(=O)N3CC(N4CCN(C(=O)c5nccs5)CC4)C3)cc2)CC(C)(C)O1 [Cpd 706] | –
19 | 105 | 0.002 | Cc1ccc2c(C(F)(F)F)c(C(=O)N3CC(N4CCN(C(=O)c5nccs5)CC4)C3)sc2c1 [Cpd 707, 1-(1-{[6-Methyl-3-(trifluoromethyl)-1-benzothiophen-2-yl]carbonyl}azetidin-3-yl)-4-(1,3-thiazol-2-ylcarbonyl)piperazine] | –
20 | 118 | 0.015 | O=C(Nc1ccc(C(=O)N2CC(N3CCN(C(=O)c4nccs4)CC3)C2)cc1)C1CCCCC1 [Cpd 709] | –
21 | 123 | – | O=C(c1ccc2c(=O)c3ccccc3oc2c1)N1CC(N2CCN(C(=O)c3nccs3)CC2)C1 [Cpd 710] | Kd (mutant MGL; [3]): 0.197 µM
22 | 127 | – | O=C(c1ccc2c(ccn2CC(F)F)c1)N1CC(N2CCN(C(=O)c3nccs3)CC2)C1 [Cpd 711, 1-(2,2-Difluoroethyl)-5-({3-[4-(1,3-thiazol-2-ylcarbonyl)piperazin-1-yl]azetidin-1-yl}carbonyl)-1H-indole] | Kd (mutant MGL; [6]): 0.05 µM

Further lines, the molecule ahead of its results:

Row | Compound | IC50 [1] [nM] | Kd (mutant MGL; [5]) [µM] | other results
23 | O=C(c1ccccc1)N1CCN(C2CN(C(=O)c3ccc4c(cnn4-c4cccc(OC(F)(F)F)c4)c3)C2)CC1 [Cpd 576, 5-({3-[4-(Phenylcarbonyl)piperazin-1-yl]azetidin-1-yl}carbonyl)-1-[3-(trifluoromethoxy)phenyl]-1H-indazole] | 51 | – | Kd (mutant MGL; [2]): 0.088 µM
24 | O=C(c1ccccc1)N1CCN(C2CN(C(=O)c3ccc4c(ccn4-c4cc(F)ccc4F)c3)C2)CC1 [Cpd 578] | 63 | – | Kd (mutant MGL; [2]): 0.195 µM
25 | Cc1cn(-c2cccc(F)c2)c2ccc(C(=O)N3CC(N4CCN(C(=O)c5ccccc5)CC4)C3)cc12 [Cpd 583] | 104 | – | Kd (mutant MGL; [2]): 0.051 µM
26 | O=C(c1ccccc1)N1CCN(C2CN(C(=O)c3ccc4c(ccn4-c4ccc(C(F)(F)F)cn4)c3)C2)CC1 [Cpd 586, 5-({3-[4-(Phenylcarbonyl)piperazin-1-yl]azetidin-1-yl}carbonyl)-1-[5-(trifluoromethyl)pyridin-2-yl]-1H-indole] | 112 | – | Kd (mutant MGL; [3]): 0.086 µM
27 | O=C(c1ccccc1)N1CCN(C2CN(C(=O)c3ccc4c(cnn4-c4ccc(F)c(F)c4)c3)C2)CC1 [Cpd 590] | 186 | – | Kd (mutant MGL; [2]): 0.182 µM
28 | O=C(c1ccccc1)N1CCN(C2CN(C(=O)c3sc4cc(C(F)(F)F)ccc4c3-c3ccccc3)C2)CC1 [Cpd 591] | 212 | – | Kd (mutant MGL; [4]): 0.007 µM
29 | O=C(c1ccccc1)N1CCN(C2CN(C(=O)c3ccc4nc(-c5ccccc5)sc4c3)C2)CC1 [Cpd 592, 2-Phenyl-6-({3-[4-(phenylcarbonyl)piperazin-1-yl]azetidin-1-yl}carbonyl)-1,3-benzothiazole] | 253 | 0.5 | –
30 | Cn1cc(-c2cccc(C(F)(F)F)c2)c2ccc(C(=O)N3CC(N4CCN(C(=O)c5ccccc5)CC4)C3)cc21 [Cpd 593] | 311 | 0.01 | –
31 | NC(=O)c1cccc(-n2ccc3cc(C(=O)N4CC(N5CCN(C(=O)c6ccccc6)CC5)C4)ccc32)c1 [Cpd 594, 3-[5-({3-[4-(Phenylcarbonyl)piperazin-1-yl]azetidin-1-yl}carbonyl)-1H-indol-1-yl]benzamide] | 449 | – | Kd (mutant MGL; [2]): 0.743 µM
32 | O=C(c1ccccc1)N1CCN(C2CN(C(=O)c3ccc4c(ccn4-c4ccc(F)cn4)c3)C2)CC1 [Cpd 596, 1-(5-Fluoropyridin-2-yl)-5-({3-[4-(phenylcarbonyl)piperazin-1-yl]azetidin-1-yl}carbonyl)-1H-indole] | 543 | – | Kd (mutant MGL; [3]): 0.628 µM
33 | O=C(c1ccccc1)N1CCN(C2CN(C(=O)c3ccc4c(-c5ccc(C(F)(F)F)cc5)ncnc4c3)C2)CC1 [Cpd 597] | 600 | 0.153 | –
34 | O=C(c1ccccc1)N1CCN(C2CN(C(=O)c3ccc4nc(-c5cccc(F)c5)sc4c3)C2)CC1 [Cpd 599] | 1030 | – | Kd (mutant MGL; [4]): 0.481 µM
35 | O=C(c1ccccc1)N1CCN(C2CN(C(=O)c3cc(-c4cccc(F)c4)c4[nH]ccc4c3)C2)CC1 [Cpd 600] | 1150 | – | Kd (mutant MGL; [2]): 1.97 µM
36 | O=C(c1ccccc1)N1CCN(C2CN(C(=O)c3cccc4[nH]c(-c5ccccc5)nc34)C2)CC1 [Cpd 601] | 1550 | – | Kd (mutant MGL; [4]): 0.527 µM
37 | O=C(c1ccccc1)N1CCN(C2CN(C(=O)c3cccc4[nH]c(-c5ccc(F)cc5)nc34)C2)CC1 [Cpd 602] | 1720 | – | Kd (mutant MGL; [4]): 0.5 µM
38 | O=C(c1ccccc1)N1CCN(C2CN(C(=O)c3ccc4c(ccn4-c4ccncc4)c3)C2)CC1 [Cpd 603, 5-({3-[4-(Phenylcarbonyl)piperazin-1-yl]azetidin-1-yl}carbonyl)-1-pyridin-4-yl-1H-indole] | 1720 | – | Kd (mutant MGL; [3]): 0.448 µM
39 | O=C(c1ccccc1)N1CCN(C2CN(C(=O)c3cc4cc(-c5ccccc5)ccc4o3)C2)CC1 [Cpd 605] | 1860 | – | Kd (mutant MGL; [4]): 1.89 µM
40 | O=C(c1ccccc1)N1CCN(C2CN(C(=O)c3cccc4[nH]c(-c5ccc(Cl)cc5)nc34)C2)CC1 [Cpd 607] | 2900 | – | Kd (mutant MGL; [4]): 1 µM
41 | O=C(c1ccccc1)N1CCN(C2CN(C(=O)c3cccc4[nH]c(-c5ccccc5Cl)nc34)C2)CC1 [Cpd 608] | 4170 | – | Kd (mutant MGL; [4]): 1.67 µM
42 | O=C(c1ccccc1)N1CCN(C2CN(C(=O)c3cccc4[nH]c(-c5cccc(F)c5)nc34)C2)CC1 [Cpd 609] | 4330 | – | Kd (mutant MGL; [4]): 1 µM
